Measured values: ChEMBL document CHEMBL5370580, “Discovery of three-dimensional bicyclo[3.3.1]nonanols as novel heat shock protein 90 inhibitors” (Bioorg Med Chem, 2023)
The source made the active and inactive calls. The rule behind the calls is not given here.

Legend:
[1] = Inhibition of HIF-1 mediated gene transcription activity in human HeLa cells co-expressing HRE dependent firefly luciferase reporter gene pre-incubated for 1 hrs followed by incubation at hypoxic condition for 12 hrs by luciferase reporter gene assay; type: cell-based
[2] = biological target: T1, Heat shock factor protein 1 (Homo sapiens) (UniProt Q00613); assay: Activation of HSF1 in human HeLa cells assessed as increase in HSP47 mRNA expression at 100 uM measured after 12 hrs by Real-time PCR assay; type: cell-based
T1 sequence (whole entry): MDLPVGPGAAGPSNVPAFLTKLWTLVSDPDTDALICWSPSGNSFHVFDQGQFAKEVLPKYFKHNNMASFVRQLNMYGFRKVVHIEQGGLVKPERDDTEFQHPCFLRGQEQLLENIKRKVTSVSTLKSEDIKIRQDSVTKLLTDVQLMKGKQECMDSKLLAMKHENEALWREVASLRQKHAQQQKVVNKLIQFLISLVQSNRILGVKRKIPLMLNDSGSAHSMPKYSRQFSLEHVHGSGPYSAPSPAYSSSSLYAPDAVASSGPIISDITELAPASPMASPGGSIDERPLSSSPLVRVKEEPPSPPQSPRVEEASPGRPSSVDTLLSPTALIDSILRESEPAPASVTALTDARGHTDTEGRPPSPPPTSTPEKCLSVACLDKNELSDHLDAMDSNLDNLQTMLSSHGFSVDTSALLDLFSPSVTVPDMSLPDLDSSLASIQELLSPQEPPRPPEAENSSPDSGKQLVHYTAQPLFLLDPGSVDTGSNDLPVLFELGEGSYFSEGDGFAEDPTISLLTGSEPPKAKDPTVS

HeLa [3] = assay: Effect on CA9 mRNA expression in human HeLa cells at 100 uM pre-incubated for 1 hr followed by incubation at hypoxic condition for 12 hrs by RT-PCR assay; type: functional, cell-based; settings: time 13.0 hrs
[4] = biological target: Hypoxia-inducible factor 1-alpha (Homo sapiens) (UniProt Q16665); assay: Induction of HIF-1alpha degradation in human HeLa cells assessed as reduction in CA9 protein expression upto 100 uM incubated for 12 hrs under hypoxia condition by Western blot analysis; type: cell-based
Hypoxia-inducible factor 1-alpha (Homo sapiens), sequence (Q16665 whole entry, looked up): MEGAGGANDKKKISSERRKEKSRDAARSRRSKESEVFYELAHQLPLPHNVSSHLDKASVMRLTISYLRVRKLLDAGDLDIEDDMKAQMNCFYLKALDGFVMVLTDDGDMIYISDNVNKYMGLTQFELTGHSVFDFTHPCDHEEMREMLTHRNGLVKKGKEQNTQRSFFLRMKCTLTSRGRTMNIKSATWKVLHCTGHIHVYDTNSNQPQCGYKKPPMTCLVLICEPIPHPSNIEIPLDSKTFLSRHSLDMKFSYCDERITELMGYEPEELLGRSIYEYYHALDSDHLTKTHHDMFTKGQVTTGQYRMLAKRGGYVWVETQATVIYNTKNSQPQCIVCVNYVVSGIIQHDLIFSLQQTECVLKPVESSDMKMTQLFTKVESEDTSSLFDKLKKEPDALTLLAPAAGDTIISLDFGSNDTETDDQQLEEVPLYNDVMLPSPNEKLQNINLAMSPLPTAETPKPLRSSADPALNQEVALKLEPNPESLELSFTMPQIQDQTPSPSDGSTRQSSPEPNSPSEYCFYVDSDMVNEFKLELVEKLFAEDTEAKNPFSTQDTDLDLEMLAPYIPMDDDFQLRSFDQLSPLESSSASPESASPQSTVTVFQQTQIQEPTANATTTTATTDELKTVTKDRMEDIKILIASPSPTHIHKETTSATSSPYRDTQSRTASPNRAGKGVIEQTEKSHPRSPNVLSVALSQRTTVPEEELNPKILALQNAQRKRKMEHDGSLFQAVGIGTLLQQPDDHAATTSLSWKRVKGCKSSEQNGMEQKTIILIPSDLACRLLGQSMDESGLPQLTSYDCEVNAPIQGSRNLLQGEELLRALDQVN

Heat shock protein HSP90 [5] = biological target: T2, Heat shock protein HSP90 (Homo sapiens, UniProt P07900+P08238); assay: Inhibition of recombinant human HSP90 ATPase activity expressed in Escherichia coli BL21 incubated for 3 hrs in presence of ATP by malachite green dye based microplate reader analysis
Heat shock protein HSP90 [6] = biological target: T2, Heat shock protein HSP90; assay: Inhibition of recombinant human HSP90 expressed in Escherichia coli BL21 assessed as increase in DTT induced insulin aggregation by measuring increase in absorbance at 100 uM pre-incubated for 1 hrs followed by DTT addition by microplate reader analysis
Heat shock protein HSP90 [7] = biological target: T2, Heat shock protein HSP90; assay: Inhibition of HSP90 in human HeLa cells assessed as reduction in AKT phosphorylation at 30 to 100 uM measured after 12 hrs by Western blot analysis; type: cell-based; settings: dose 30-100 µM
HeLa [8] = assay: Anticancer activity against human HeLa cells assessed as cell growth inhibition measured after 72 hrs by MTT assay; type: functional, cell-based
HeLa [9] = assay: Effect on HIF-1alpha mRNA expression in human HeLa cells at 1 to 100 uM pre-incubated for 1 hr followed by incubation at hypoxic condition for 12 hrs by semi-quantitative RT-PCR assay; type: functional, cell-based; settings: dose 1-100 µM, time 13.0 hrs
[10] = Effect on CDK4 protein expression in human HeLa cells assessed as fold change at 100 uM measured after 24 hrs by immunoblotting analysis (reference value: 1); type: functional
[11] = Effect on HSP70 protein expression in human HeLa cells assessed as fold change at 100 uM measured after 24 hrs by immunoblotting analysis (reference value: 1); type: functional
[12] = biological target: T1, Heat shock factor protein 1 (Homo sapiens); assay: Activation of HSF1 in human HeLa cells assessed as increase in HSP70 mRNA expression at 100 uM measured after 12 hrs by Real-time PCR assay; type: cell-based
HeLa [13] = assay: Effect on HSP90 protein expression in human HeLa cells at 30 to 100 uM measured after 24 hrs by Western blot analysis; type: functional, cell-based; settings: dose 30-100 µM
Heat shock protein HSP90 [14] = biological target: T2, Heat shock protein HSP90; assay: Inhibition of HSP90 in human HeLa cells assessed as reduction in CDK4 protein expression at 30 to 100 uM measured after 24 hrs by Western blot analysis; type: cell-based; settings: dose 30-100 µM
[15] = biological target: Hypoxia-inducible factor 1-alpha (Homo sapiens) (UniProt Q16665); assay: Induction of HIF-1alpha degradation in human HeLa cells assessed as reduction in HIF-1alpha accumulation upto 100 uM incubated for 12 hrs under hypoxia condition by Western blot analysis; type: cell-based
HeLa [16] = assay: Effect on CA9 mRNA expression in human HeLa cells at 1 to 100 uM pre-incubated for 1 hr followed by incubation at hypoxic condition for 12 hrs by semi-quantitative RT-PCR assay; type: functional, cell-based; settings: dose 1-100 µM, time 13.0 hrs
[17] = Inhibition of recombinant luciferase (unknown origin) incubated for 10 mins by luminescence based microplate reader analysis
[18] = Effect on HSP90 protein expression in human HeLa cells assessed as fold change at 100 uM measured after 24 hrs by immunoblotting analysis (reference value: 1); type: functional
[19] = Effect on HSF1 protein expression in human HeLa cells assessed as fold change at 100 uM measured after 24 hrs by immunoblotting analysis (reference value: 1); type: functional
Heat shock protein HSP90 [20] = biological target: T2, Heat shock protein HSP90; assay: Inhibition of HSP90 in human HeLa cells assessed as reduction in ERK phosphorylation at 30 to 100 uM measured after 12 hrs by Western blot analysis; type: cell-based; settings: dose 30-100 µM
Heat shock protein HSP90 [21] = biological target: T2, Heat shock protein HSP90; assay: Inhibition of HSP90 in human HeLa cells assessed as reduction in p70s6k phosphorylation at 30 to 100 uM measured after 12 hrs by Western blot analysis; type: cell-based; settings: dose 30-100 µM
HeLa [22] = assay: Effect on HIF-1alpha mRNA expression in human HeLa cells at 100 uM pre-incubated for 1 hr followed by incubation at hypoxic condition for 12 hrs by RT-PCR assay; type: functional, cell-based; settings: time 13.0 hrs
HeLa [23] = assay: Effect on HSP70 protein expression in human HeLa cells at 30 to 100 uM measured after 24 hrs by Western blot analysis; type: functional, cell-based; settings: dose 30-100 µM
[24] = biological target: T1, Heat shock factor protein 1 (Homo sapiens); assay: Activation of HSF1 in human HeLa cells assessed as increase in HSP27 mRNA expression at 100 uM measured after 12 hrs by Real-time PCR assay; type: cell-based
[25] = Downregulation of p-AKT protein expression in human Hela cells assessed as fold change at 100 uM measured after 24 hrs by immunoblotting analysis (reference value: 1); type: functional
[26] = Effect on HSP90 protein expression in human HeLa cells assessed as fold change at 10 uM measured after 24 hrs by immunoblotting analysis (reference value: 1); type: functional
[27] = biological target: T1, Heat shock factor protein 1 (Homo sapiens); assay: Activation of HSF1 in human HeLa cells assessed as increase in HSP70 mRNA expression at 10 uM measured after 12 hrs by Real-time PCR assay; type: cell-based; settings: filed as activator
[28] = Downregulation of p-AKT protein expression in human Hela cells assessed as fold change at 10 uM measured after 24 hrs by immunoblotting analysis (reference value: 1); type: functional
[29] = biological target: T1, Heat shock factor protein 1 (Homo sapiens); assay: Activation of HSF1 in human HeLa cells assessed as increase in HSP47 mRNA expression at 10 uM measured after 12 hrs by Real-time PCR assay; type: cell-based; settings: filed as activator
[30] = biological target: T1, Heat shock factor protein 1 (Homo sapiens); assay: Activation of HSF1 in human HeLa cells assessed as increase in HSP27 mRNA expression at 10 uM measured after 12 hrs by Real-time PCR assay; type: cell-based; settings: filed as activator
[31] = Downregulation of CDK4 protein expression in human Hela cells assessed as fold change at 10 uM measured after 24 hrs by immunoblotting analysis (reference value: 1); type: functional
[32] = Effect on HSF1 protein expression in human HeLa cells assessed as fold change at 10 uM measured after 24 hrs by immunoblotting analysis (reference value: 1); type: functional
[33] = Effect on HSP70 protein expression in human HeLa cells assessed as fold change at 10 uM measured after 24 hrs by immunoblotting analysis (reference value: 1); type: functional

| Compound | IC50 [1] [µM] | Activity [2] | Activity (HeLa [3]) | Activity [4] | inhibition (Heat shock protein HSP90 [6]) | inhibition (Heat shock protein HSP90 [7]) | IC50 (HeLa [8]) [µM] | Activity (HeLa [9]) | fold change (FC) [10] | fold change (FC) [11] | Activity [12] | Activity (HeLa [13]) | inhibition (Heat shock protein HSP90 [14]) | Activity [15] | Activity (HeLa [16]) | inhibition [17] | fold change (FC) [18] | fold change (FC) [19] | inhibition (Heat shock protein HSP90 [20]) | inhibition (Heat shock protein HSP90 [21]) | other results |
| --- | --- | --- | --- | --- | --- | --- | --- | --- | --- | --- | --- | --- | --- | --- | --- | --- | --- | --- | --- | --- | --- |
| CCCC[C@@H]1C[C@@H]2C(C(=O)OCC(C)C)=C(O)[C@H](C(=O)OCC(C)C)[C@@](O)([C@@H]1C(=O)OCC(C)C)[C@H]2C(=O)O | 36.3 | inactive | Active | Active | inactive | Active | 18.6 | inactive | 0.52 | 0.97 | inactive | inactive | Active | Active | Active | Active | 0.95 | 0.9 | Active | Active | IC50 (Heat shock protein HSP90 [5]): 45.8 µM; Activity (HeLa [22]): inactive; Activity (HeLa [23]): inactive; Activity [24]: inactive |
| CCCC[C@@H]1C[C@@H]2C(C(=O)OCC(C)C)=C(O)[C@H](C(=O)OC)[C@@](O)([C@@H]1C(=O)OC)[C@H]2C(=O)O | 70.4 | inactive | Active | Active | inactive | Active | 40.1 | inactive | 0.78 | 0.95 | inactive | inactive | Active | Active | Active | Active | 0.97 | 1.02 | Active | Active | fold change (FC) [25]: 0.82; Activity (HeLa [22]): inactive; Activity (HeLa [23]): inactive; Activity [24]: inactive |
| CCCC[C@@H]1C[C@@H]2C(C(=O)OCC(C)C)=C(O)[C@H](C(=O)OC)[C@@](O)([C@@H]1C(=O)OCC(C)C)[C@H]2C(=O)O | > 100 | – | – | – | – | – | 22.6 | – | – | – | – | – | – | – | – | – | – | – | – | – | – |
| COC1=C2C[C@@H](C)C[C@H](OC)[C@H](O)[C@@H](C)/C=C(\C)[C@H](OC(N)=O)[C@@H](OC)/C=C\C=C(/C)C(=O)NC(=CC1=O)C2=O [GELDANAMYCIN] | – | – | – | – | – | – | – | – | – | – | – | – | – | – | – | – | – | – | – | – | fold change (FC) [26]: 0.93; Activity [27]: Active; fold change (FC) [28]: 0.7; Activity [29]: Active; Activity [30]: Active; fold change (FC) [31]: 0.71; fold change (FC) [32]: 1.06; fold change (FC) [33]: 1.96 |
| COC(=O)C1=C(O)[C@H](C(=O)OC)[C@@]2(O)[C@H](C(=O)OC)[C@H](C)C[C@H]1[C@@H]2C(=O)O | > 100 | – | – | – | – | – | > 100 | – | – | – | – | – | – | – | – | – | – | – | – | – | – |
| CCCC[C@@H]1C[C@@H]2C(C(=O)OCC(C)C)=C(O)[C@H](C(=O)OCC(C)C)[C@@](O)([C@@H]1C(=O)OCC(C)C)[C@H]2C(=O)OCC(C)C | > 100 | – | – | – | – | – | 72.7 | – | – | – | – | – | – | – | – | – | – | – | – | – | – |
| CC(C)COC(=O)C1=C(O)[C@H](C(=O)OCC(C)C)[C@@]2(O)[C@H](C(=O)OCC(C)C)[C@H](C)C[C@H]1[C@@H]2C(=O)O | 50.6 | inactive | Active | Active | inactive | Active | 18.8 | inactive | 0.6 | 0.99 | inactive | inactive | Active | Active | Active | Active | 0.96 | 0.98 | Active | Active | IC50 (Heat shock protein HSP90 [5]): 95 µM; fold change (FC) [25]: 0.51; Activity (HeLa [22]): inactive; Activity (HeLa [23]): inactive; Activity [24]: inactive |
| CCCC[C@@H]1C[C@@H]2C(C(=O)OC)=C(O)[C@H](C(=O)OC)[C@@](O)([C@@H]1C(=O)OC)[C@H]2C(=O)O | > 100 | – | – | – | – | – | 44.8 | – | – | – | – | – | – | – | – | – | – | – | – | – | – |
